BindingDB's records for doi:10.1021/jm00032a002 (Merck Sharp and Dohme Research Laboratories, 1994)

Biological target: Gastrin/cholecystokinin type B receptor (Cavia porcellus)
Assay: Binding activity against Cholecystokinin type B receptor from guinea pig cortex using [125]BH CCK-8s as radioligand.

IC50: 5.7 nM
SMILES: Cc1cccc(NC(=O)NC2N=C(N3CCCCC3)c3ccccc3N(C)C2=O)c1 (stereo unspecified) [1-(1-Methyl-2-oxo-5-piperidin-1-yl-2,3-dihydro-1H-benzo[e][1,4]diazepin-3-yl)-3-m-tolyl-urea]
